# From ChEMBL document CHEMBL1201862, “PubChem BioAssay data set” (2004)
#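 96-well plates; 48 h exposure; 5 concentrations. Endpoints by linear interpolation between flanking doses. Not reached: highest tested concentration assigned. Here, GI50 denotes the concentration required for 50% inhibition of growth.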 The source made the active and inactive calls. Cut-off read from the data, not from the text of the source: active = GI50 up to about 1.1 µM and inactive = higher.
# How the values were obtained:
# Assay in all cases: NCI-60 cell line screen, 48 h
# 786-0 = test system: 786-0
# A498 = test system: A498
# A549 = test system: A549
# ACHN = test system: ACHN
# CAKI-1 = test system: CAKI-1
# CCRF-CEM = test system: CCRF-CEM
# COLO 205 = test system: COLO 205
# DLD-1 = test system: DLD-1
# DMS-114 = test system: DMS-114
# DMS-273 = test system: DMS-273
# EKVX = test system: EKVX
# HCC 2998 = test system: HCC 2998
# HCT-116 = test system: HCT-116
# HCT-15 = test system: HCT-15
# HL-60 = test system: HL-60
# HOP-18 = test system: HOP-18
# HOP-62 = test system: HOP-62
# HOP-92 = test system: HOP-92
# HT-29 = test system: HT-29
# IGROV-1 = test system: IGROV-1
# K562 = test system: K562
# KM-20L2 = test system: KM-20L2
# KM12 = test system: KM12
# LOX IMVI = test system: LOX IMVI
# LXFL 529 = test system: LXFL 529
# M14 = test system: M14
# MOLT-4 = test system: MOLT-4
# Malme-3M = test system: Malme-3M
# NCI-H226 = test system: NCI-H226
# NCI-H23 = test system: NCI-H23
# NCI-H460 = test system: NCI-H460
# NCI-H522 = test system: NCI-H522
# OVCAR-3 = test system: OVCAR-3
# OVCAR-4 = test system: OVCAR-4
# OVCAR-5 = test system: OVCAR-5
# OVCAR-8 = test system: OVCAR-8
# RPMI-8226 = test system: RPMI-8226
# RXF 393 = test system: RXF 393
# SF-268 = test system: SF-268
# SF-295 = test system: SF-295
# SF-539 = test system: SF-539
# SK-MEL-28 = test system: SK-MEL-28
# SK-MEL-2 = test system: SK-MEL-2
# SK-MEL-5 = test system: SK-MEL-5
# SK-OV-3 = test system: SK-OV-3
# SN12C = test system: SN12C
# SNB-19 = test system: SNB-19
# SNB-75 = test system: SNB-75
# SNB-78 = test system: SNB-78
# SR = test system: SR
# SW-620 = test system: SW-620
# TK-10 = test system: TK-10
# U-251 = test system: U-251
# UACC-257 = test system: UACC-257
# UACC-62 = test system: UACC-62
# UO-31 = test system: UO-31
# XF498 = test system: XF498
structure (smiles),measurement,setting,value
Cc1ccc(C(=O)C(C)N)cc1 (configuration not stated),GI50,786-0,> 100 µM (inactive)
same,GI50,A498,> 100 µM (inactive)
same,GI50,A549,> 100 µM (inactive)
same,GI50,ACHN,> 100 µM (inactive)
same,GI50,CAKI-1,> 100 µM (inactive)
same,GI50,CCRF-CEM,> 100 µM (inactive)
same,GI50,COLO 205,> 100 µM (inactive)
same,GI50,DLD-1,> 100 µM (inactive)
same,GI50,DMS-114,> 100 µM (inactive)
same,GI50,DMS-273,> 100 µM (inactive)
same,GI50,EKVX,> 100 µM (inactive)
same,GI50,HCC 2998,> 100 µM (inactive)
same,GI50,HCT-116,> 100 µM (inactive)
same,GI50,HCT-15,> 100 µM
same,GI50,HL-60,> 100 µM (inactive)
same,GI50,HOP-18,> 100 µM (inactive)
same,GI50,HOP-62,> 100 µM (inactive)
same,GI50,HOP-92,> 100 µM (inactive)
same,GI50,HT-29,> 100 µM (inactive)
same,GI50,IGROV-1,> 100 µM (inactive)
same,GI50,K562,> 100 µM (inactive)
same,GI50,KM-20L2,> 100 µM (inactive)
same,GI50,KM12,> 100 µM (inactive)
same,GI50,LOX IMVI,> 100 µM (inactive)
same,GI50,LXFL 529,> 100 µM (inactive)
same,GI50,M14,> 100 µM (inactive)
same,GI50,MOLT-4,> 100 µM (inactive)
same,GI50,Malme-3M,> 100 µM (inactive)
same,GI50,NCI-H226,> 100 µM (inactive)
same,GI50,NCI-H23,> 100 µM (inactive)
same,GI50,NCI-H460,> 100 µM (inactive)
same,GI50,NCI-H522,> 100 µM (inactive)
same,GI50,OVCAR-3,> 100 µM (inactive)
same,GI50,OVCAR-4,> 100 µM (inactive)
same,GI50,OVCAR-5,> 100 µM (inactive)
same,GI50,OVCAR-8,> 100 µM (inactive)
same,GI50,RPMI-8226,> 100 µM (inactive)
same,GI50,RXF 393,> 100 µM (inactive)
same,GI50,SF-268,> 100 µM (inactive)
same,GI50,SF-295,> 100 µM (inactive)
same,GI50,SF-539,> 100 µM (inactive)
same,GI50,SK-MEL-28,> 100 µM (inactive)
same,GI50,SK-MEL-2,> 100 µM (inactive)
same,GI50,SK-MEL-5,> 100 µM (inactive)
same,GI50,SK-OV-3,> 100 µM (inactive)
same,GI50,SN12C,> 100 µM (inactive)
same,GI50,SNB-19,> 100 µM (inactive)
same,GI50,SNB-75,> 100 µM (inactive)
same,GI50,SNB-78,> 100 µM (inactive)
same,GI50,SR,> 100 µM (inactive)
same,GI50,SW-620,> 100 µM (inactive)
same,GI50,TK-10,> 100 µM (inactive)
same,GI50,U-251,> 100 µM (inactive)
same,GI50,UACC-257,> 100 µM (inactive)
same,GI50,UACC-62,> 100 µM (inactive)
same,GI50,UO-31,> 100 µM (inactive)
same,GI50,XF498,> 100 µM (inactive)
